Results from patent US11524955B2, “2,4-diamino-pyrimidine compounds and method for making and using the compounds” (Rigel Pharmaceuticals, Inc., priority 2016, dated 2022).
Read-outs that look alike come from different tables or passages of the source.

Experiments:
[1] = target: T1, IRAK4 (Homo sapiens, UniProt Q9NWZ3); assay: IRAK4 biochemical assay, ADP-Glo kinase assay
T1 sequence (Q9NWZ3 1-460): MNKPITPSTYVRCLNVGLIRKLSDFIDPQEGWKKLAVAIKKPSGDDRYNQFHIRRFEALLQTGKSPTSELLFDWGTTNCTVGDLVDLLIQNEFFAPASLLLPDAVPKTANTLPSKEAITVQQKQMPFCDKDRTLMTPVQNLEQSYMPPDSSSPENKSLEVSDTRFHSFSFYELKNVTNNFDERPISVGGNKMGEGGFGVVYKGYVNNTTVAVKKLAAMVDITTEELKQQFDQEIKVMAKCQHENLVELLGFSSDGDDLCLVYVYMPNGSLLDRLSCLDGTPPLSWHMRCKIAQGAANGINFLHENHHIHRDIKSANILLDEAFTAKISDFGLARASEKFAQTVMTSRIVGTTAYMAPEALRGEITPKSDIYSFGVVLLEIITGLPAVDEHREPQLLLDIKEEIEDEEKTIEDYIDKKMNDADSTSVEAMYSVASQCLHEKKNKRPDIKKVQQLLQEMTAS
Description: (§1) IRAK4 and TAK1 biochemical assays: kinase activity was measured by ADP-Glo kinase assay (Promega).

[2] = target: T2, TAK1 (Homo sapiens, UniProt O43318); assay: TAK1 biochemical assay, ADP-Glo kinase assay
T2 sequence (O43318 1-303 limits assumed): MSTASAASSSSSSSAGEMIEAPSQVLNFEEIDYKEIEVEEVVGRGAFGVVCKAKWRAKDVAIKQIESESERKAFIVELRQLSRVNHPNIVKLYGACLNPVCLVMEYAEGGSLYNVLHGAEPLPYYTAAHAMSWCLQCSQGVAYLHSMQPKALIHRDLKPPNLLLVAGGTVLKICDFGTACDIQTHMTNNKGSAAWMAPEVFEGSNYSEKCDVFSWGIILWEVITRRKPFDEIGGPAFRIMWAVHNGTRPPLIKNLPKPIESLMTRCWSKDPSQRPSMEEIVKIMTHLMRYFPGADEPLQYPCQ
Description: as §1

[3] = tested on: IL-23, THP1 cells; assay: IL-23 assay, THP1 cells primed with IFNg, LPS stimulated, ELISA; assay type: cell-based; conditions: Homo sapiens, THP-1
Description: (§2) IL-23 assays: THP1 cells or human primary monocyte-derived dendritic cells (DC) were primed overnight with IFNg. Following one hour preincubation with compound, cells were stimulated overnight with LPS. IL-23 released into the media was quantitated by ELISA.

[4] = tested on: IL-23, dendritic cells; assay: IL-23 assay, human primary monocyte-derived dendritic cells, LPS stimulated, ELISA; assay type: cell-based; conditions: Dendritic cell
Description: as §2

[5] = tested on: IL-6, HUVEC; assay: IL-6 assay, HUVEC, ELISA; assay type: cell-based, human; conditions: Homo sapiens
[6] = tested on: IL-8, HUVEC; assay: IL-8 assay, HUVEC, ELISA; assay type: cell-based, human; conditions: Homo sapiens

- IC50 [1]: 3 nM
- IC50 [2]: 17 nM
- IC50 ([3]; THP1 cells, IFNy primed, LPS stimulated, 10 pt, read-out: IL23-p19 ELISA, THP1-IFNy, LPS, 10 pt): < 100 nM
- IC50 ([3]; THP cells, LPS, read-out: IL23 (THP, LPS) IC50): 100 nM
- IC50 ([3]; read-out: IL23 (LPS induced) IC50): 100 nM
- IC50 ([4]; LPS stimulated, 10 pt, read-out: IL23-P19, ELISA, Dendritic, LPS, 10 pt): < 250 nM
- IC50 ([4]; LPS, read-out: IL23 (Dentritic Cells, LPS) IC50): 110 nM
Compound: NC(=O)[C@@H]1[C@H](Nc2nc(Nc3cccc(C(=O)N4CCCC4)c3)ncc2-c2ccnc(F)c2)[C@H]2C=C[C@@H]1C2 [Compound 16, (1S,2S,3R,4R)-3-((5-(2-fluoropyridin-4-yl)-2-((3-(pyrrolidine-1-carbonyl)phenyl)amino)pyrimidin-4-yl)amino)bicyclo[2.2.1] hept-5-ene-2-carboxamide]
- IC50 ([5]; read-out: IL6 (HUVEC, IL-1β) IC50): 110 nM
- IC50 ([5]; read-out: IL6 (HUVEC, LPS) IC50): 120 nM
- IC50 ([5]; read-out: IL6 (HUVEC, TNFα) IC50): 1200 nM
- IC50 ([6]; read-out: IL8 (HUVEC, IL-1β) IC50): 250 nM
- IC50 ([6]; read-out: IL8 (HUVEC, LPS) IC50): 1000 nM
- IC50 ([6]; read-out: IL8 (HUVEC, TNFα) IC50): 3000 nM
